The text below walks through data of patent publication US10722514B2 (FLX Bio, Inc., priority 2017, dated 2020).

Read-outs that look alike come from different tables or passages of the source.

The assay has as its target T1, recombinant full-length USP7 (Homo sapiens, UniProt Q93009).
T1 construct: A 25 μl reaction volume containing recombinant full-length USP7 (62 pM)
As to the kind of experiment: USP7-mediated ubiquitin-rhodamine cleavage assay. It counts as biochemical. As to conditions: recombinant full-length USP7 62 pM, ubiquitin-rhodamine 100 nM, 1 hour reaction at room temperature. Here is the method:
In the case of the USP7 deubiquitylating enzyme, the IC50 of an USP7 inhibiting compound is the concentration of the compound that inhibits 50% of the activity observed in a USP7-mediated ubiquitin-rhodamine cleavage assay.
For the USP7 inhibitors disclosed herein, their potency was measured using the following test method.
A 25 μl reaction volume containing recombinant full-length USP7 (62 pM) in 20 mM HEPES pH 7.3, 150 mM NaCl, 1 mM TCEP, and 125 μg/ml BSA was assembled in wells of 384 well plates. Test compounds were dispensed with a Hewlett Packard D300 digital dispenser (1% final DMSO). Following a 30-minute incubation at room temperature, ubiquitin-rhodamine was added with the D300 to a final concentration of 100 nM and the reaction was allowed to proceed for 1 hour at room temperature protected from light. The reaction was stopped by the addition of 5 μl 1M acetic acid. Rhodamine fluorescence was measured using an Envision plate reader (Perkin Elmer) and IC50 values were determined by non-linear regression using a 4-parameter fit in a Dotmatics (Bishops Stortford, Hertfordshire, England) software package.

Where [1] appears, read: 30-minute incubation with compound, read-out: Potency: USP7 IC50.

T1 sequence (Q93009 whole entry): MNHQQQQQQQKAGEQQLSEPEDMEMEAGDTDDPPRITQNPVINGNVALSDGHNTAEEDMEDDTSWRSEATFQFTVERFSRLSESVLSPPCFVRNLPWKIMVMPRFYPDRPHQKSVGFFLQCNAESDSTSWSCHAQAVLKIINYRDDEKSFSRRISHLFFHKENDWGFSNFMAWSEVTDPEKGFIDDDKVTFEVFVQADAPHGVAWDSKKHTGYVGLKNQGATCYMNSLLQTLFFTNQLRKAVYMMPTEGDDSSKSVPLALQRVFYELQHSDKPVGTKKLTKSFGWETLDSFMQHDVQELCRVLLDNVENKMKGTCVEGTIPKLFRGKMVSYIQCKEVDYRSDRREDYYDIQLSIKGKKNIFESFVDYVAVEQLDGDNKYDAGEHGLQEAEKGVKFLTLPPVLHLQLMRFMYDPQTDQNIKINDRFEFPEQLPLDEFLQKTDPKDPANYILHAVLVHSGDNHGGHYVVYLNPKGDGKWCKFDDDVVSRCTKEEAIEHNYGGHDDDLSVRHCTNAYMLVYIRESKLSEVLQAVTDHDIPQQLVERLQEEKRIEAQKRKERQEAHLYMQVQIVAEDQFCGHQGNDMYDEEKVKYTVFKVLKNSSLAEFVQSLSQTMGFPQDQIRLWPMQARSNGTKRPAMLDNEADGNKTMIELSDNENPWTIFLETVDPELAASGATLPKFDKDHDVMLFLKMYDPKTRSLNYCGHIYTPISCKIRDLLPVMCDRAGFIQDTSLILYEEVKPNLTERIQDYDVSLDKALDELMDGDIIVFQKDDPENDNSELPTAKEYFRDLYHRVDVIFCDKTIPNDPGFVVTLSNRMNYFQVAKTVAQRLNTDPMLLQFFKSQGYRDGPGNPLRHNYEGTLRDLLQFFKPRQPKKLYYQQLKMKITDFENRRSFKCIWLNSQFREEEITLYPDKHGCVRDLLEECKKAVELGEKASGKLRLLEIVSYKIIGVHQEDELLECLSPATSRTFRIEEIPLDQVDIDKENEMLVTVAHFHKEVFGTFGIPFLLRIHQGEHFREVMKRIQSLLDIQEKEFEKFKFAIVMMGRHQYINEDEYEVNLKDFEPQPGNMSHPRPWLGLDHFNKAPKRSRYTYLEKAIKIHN

For the molecule “1-(7-(2-((3-Azabicyclo[3.1.0]hexan-6-yl)methoxy)-5-chloro-3-methylphenyl)thieno[3,2-b]pyridin-2-yl)propan-1-ol [Example 88]”, under setting [1], the IC50 lay in the range of 10000 to 30000 nM. On to “1-((4-(5-Chloro-2-(((3R,4S)-4-fluoropyrrolidin-3-yl)oxy)-3-methylphenyl)thieno[3,2-d]pyrimidin-6-yl)methyl)pyrrolidine-2,5-dione [Example 96]”, for which, under setting [1], the IC50 is < 1000 nM. Consider “2-((4-(5-Chloro-3-methyl-2-(piperidin-4-yloxy)phenyl)thieno[3,2-d]pyrimidin-6-yl)methyl)tetrahydrocyclopenta[c]pyrrole-1,3(2H,3aH)-dione [Example 178]”, for which the 50% inhibitory concentration (IC50) under setting [1] was < 1000 nM.

Regarding “3-((7-(5-Chloro-2-(((3S,4R)-4-fluoropiperidin-3-yl)oxy)-3-methyphenyl)thien[3,2-b]pyridin-2-yl)methyl)-1-(2,2,2-trifluoroethyl)pyrimidine-2,4(1H,3H)-dione [Example 4]”, the concentration for half-maximal inhibition (IC50) under setting [1] was < 1000 nM.

Turning to “3-((7-(5-Chloro-3-methyl-2-(((1R,3R)-3-morpholinocyclopentyl)oxy)phenyl)thieno[3,2-b]pyridin-2-yl)methyl)-1-(2,2,2-trifluoroethyl)pyrimidine-2,4(1H,3H)-dione [Example 246]”, the half-maximal inhibitory concentration (IC50) under setting [1] is < 1000 nM. For “3-[[7-[5-chloro-2-[2-(3-hydroxyazetidin-1-yl)ethoxy]-3-methyl-phenyl]thieno[3,2- [Example 667]”, under “30-minute pre-incubation, read-out: Potency (USP7 IC50)”, the IC50 was < 1000 nM. With “3-[[7-[5-chloro-3-methyl-2-[[(3S,6S)-6-methyl-3-piperidyl]oxy]phenyl]thieno[3,2-b]pyridin-2-yl]methyl]-6,6-dimethyl-3-azabicyclo[3.1.0]hexane-2,4-dione; 2,2,2-tirfluoroacetic acid [Example 304]”, the IC50 under setting [1] was < 1000 nM. Turning to `Cc1cc(Cl)cc(-c2ccnc3cc([C@H](C)N4C(=O)CCC4=O)sc23)c1OC1CCNCC1` [Example 1, (S)-1-(1-(7-(5-Chloro-3-methyl-2-(piperidin-4-yloxy)phenyl)thieno[3,2-b]pyridin-2-yl)ethyl)pyrrolidine-2,5-dione], the half-maximal inhibitory concentration (IC50) under setting [1] fell in the range of 1000 to 10000 nM. Turning to `Cc1cc(Cl)cc(-c2ccnc3cc(CN4CCCCS4(=O)=O)sc23)c1O[C@@H]1CNC[C@@H]1F` [Example 2, 2-((7-(5-Chloro-2-(((3R,4S)-4-fluoropyrrolidin-3-yl)oxy)-3-methylphenyl)thieno[3,2-b]pyridin-2-yl)methyl)-1,2-thiazinane 1,1-dioxide], the IC50 under setting [1] was in the range of 1000 to 10000 nM. With `CCC(O)c1cc2nccc(-c3cc(Cl)cc(C)c3OCC3CN(C)C3)c2s1` (centres unmarked) [Example 3, 1-(7-(5-Chloro-3-methyl-2-((1-methylazetidin-3-yl)methoxy)phenyl)thieno[3,2-b]pyridin-2-yl)propan-1-ol], the IC50 under setting [1] lay in the range of 10000 to 30000 nM. For the molecule `Cc1cc(Cl)cc(-c2ccnc3cc(Cn4c(=O)ccn(C5COC5)c4=O)sc23)c1O[C@H]1CCCNC1` [Example 5, (S)-3-((7-(5-Chloro-3-methyl-2-(piperidin-3-yloxy)phenyl)thieno[3,2-b]pyridin-2-yl)methyl)-1-(oxetan-3-yl)pyrimidine-2,4(1H,3H)-dione], under setting [1], the IC50 was < 1000 nM. `Cc1cc(Cl)cc(-c2ccnc3cc(Cn4c(=O)ccn(C)c4=O)sc23)c1OC1CNCC(C)(C)C1` (centres unmarked) [Example 6, 3-((7-(5-Chloro-2-((5,5-dimethylpiperidin-3-yl)oxy)-3-methylphenyl)thieno[3,2-b]pyridin-2-yl)methyl)-1-methylpyrimidine-2,4(1H,3H)-dione]: the half-inhibitory concentration (IC50) under setting [1] is < 1000 nM. Regarding `Cc1cc(Cl)cc(-c2ccnc3cc(Cn4c(=O)ccn(C)c4=O)sc23)c1O[C@H]1C[C@H](N)C1` [Example 7, 3-((7-(2-((1r,3r)-3-Aminocyclobutoxy)-5-chloro-3-methylphenyl)thieno[3,2-b]pyridin-2-yl)methyl)-1-methylpyrimidine-2,4(1H,3H)-dione], the half-inhibitory concentration (IC50) under setting [1] is < 1000 nM. Still for that read-out and setting: in the case of `Cc1cc(Cl)cc(-c2ccnc3cc(Cn4c(=O)ccn(C)c4=O)sc23)c1O[C@H]1CCCNCC1` [Example 8, (S)-3-((7-(2-(Azepan-4-yloxy)-5-chloro-3-methylphenyl)thieno[3,2-b]pyridin-2-yl)methyl)-1-methylpyrimidine-2,4(1H,3H)-dione] it was < 1000 nM. Still for that read-out and setting: in the case of `Cc1cc(C#N)cc(-c2ccnc3ccsc23)c1OCC1(C#N)CNC1` [Example 9, 3-((4-Cyano-2-methyl-6-(thieno[3,2-b]pyridin-7-yl)phenoxy)methyl)azetidine-3-carbonitrile] it was < 1000 nM; in that of `CCC(O)c1cc2nccc(-c3cc(C#N)cc(C)c3OCC3(C#N)CNC3)c2s1` (centres unmarked) [Example 10, 3-((4-Cyano-2-(2-(1-hydroxypropyl)thieno[3,2-b]pyridin-7-yl)-6-methylphenoxy)methyl)azetidine-3-carbonitrile], < 1000 nM; in that of `Cc1cc(C#N)cc(-c2ccnc3cc(CO)sc23)c1OCC1(C#N)CNC1` [Example 11, 3-((4-Cyano-2-(2-(hydroxymethyl)thieno[3,2-b]pyridin-7-yl)-6-methylphenoxy)methyl)azetidine-3-carbonitrile], 1000 to 10000 nM.

Take `Cc1cc(Cl)cc(-c2ccnc3cc(CN4C(=O)CCC4=O)sc23)c1OCC1(C#N)CNC1` [Example 12, 3-((4-Chloro-2-(2-((2,5-dioxopyrrolidin-1-yl)methyl)thieno[3,2-b]pyridin-7-yl)-6-methylphenoxy)methyl)azetidine-3-carbonitrile]: the IC50 under setting [1] is < 1000 nM. For the molecule `CCC(O)c1cc2ncnc(-c3cc(Cl)cc(C)c3OCC3CNC3)c2s1` (centres unmarked) [Example 13, 1-(4-(2-(Azetidin-3-ylmethoxy)-5-chloro-3-methylphenyl)thieno[3,2-d]pyrimidin-6-yl)propan-1-ol], under setting [1], the IC50 was 1000 to 10000 nM. Regarding `CCC(O)c1cc2nccc(-c3cc(Cl)cc(C)c3OCC3CNC3)c2s1` (centres unmarked) [Example 14, 1-(7-(2-(Azetidin-3-ylmethoxy)-5-chloro-3-methylphenyl)thieno[3,2-b]pyridin-2-yl)propan-1-ol], under setting [1], the IC50 lay within 1000 to 10000 nM. `Cc1cc(Cl)cc(-c2ccnc3cc(CN4C(=O)CCC4=O)sc23)c1OCC1(F)CNC1` [Example 15, 1-((7-(5-Chloro-2-((3-fluoroazetidin-3-yl)methoxy)-3-methylphenyl)thieno[3,2-b]pyridin-2-yl)methyl)pyrrolidine-2,5-dione]: the IC50 under setting [1] was < 1000 nM. On the same count and under the same terms, in the case of `Cc1cc(Cl)cc(-c2ccnc3cc(CO)sc23)c1OC[C@H]1CCN1` [Example 16, (R)-(7-(2-(Azetidin-2-ylmethoxy)-5-chloro-3-methylphenyl)thieno[3,2-b]pyridin-2-yl)methanol] it was 10000 to 30000 nM; in that of `Cc1cc(Cl)cc(-c2ccnc3cc(CO)sc23)c1OCC1(C)CNC1` [Example 17, (7-(5-Chloro-3-methyl-2-((3-methylazetidin-3-yl)methoxy)phenyl)thieno[3,2-b]pyridin-2-yl)methanol], 1000 to 10000 nM; in that of `Cc1cc(Cl)cc(-c2ccnc3cc(CO)sc23)c1OC[C@@H]1CCN1` [Example 18, (S)-(7-(2-(Azetidin-2-ylmethoxy)-5-chloro-3-methylphenyl)thieno[3,2-b]pyridin-2-yl)methanol], 10000 to 30000 nM. `Cc1cc(Cl)cc(-c2ccnc3cc(CO)sc23)c1OCC1CNC1` [Example 19, (7-(2-(Azetidin-3-ylmethoxy)-5-chloro-3-methylphenyl)thieno[3,2-b]pyridin-2-yl)methanol]: the IC50 under setting [1] lay in the range of 1000 to 10000 nM. As for `Cc1cc(Cl)cc(-c2ccnc3cc(CO)sc23)c1OCC1(F)CNC1` [Example 20, (7-(5-Chloro-2-((3-fluoroazetidin-3-yl)methoxy)-3-methylphenyl)thieno[3,2-b]pyridin-2-yl)methanol], the half-maximal inhibitory concentration (IC50) under setting [1] lay in the range of 1000 to 10000 nM. As to `OCc1cc2nccc(-c3cc(Cl)cc(Br)c3OCC3CNC3)c2s1` [Example 21, (7-(2-(Azetidin-3-ylmethoxy)-3-bromo-5-chlorophenyl)thieno[3,2-b]pyridin-2-yl)methanol], under setting [1], the IC50 lay within 1000 to 10000 nM. With `CCc1cc(Cl)cc(-c2ccnc3cc(CO)sc23)c1OCC1CNC1` [Example 22, (7-(2-(Azetidin-3-ylmethoxy)-5-chloro-3-ethylphenyl)thieno[3,2-b]pyridin-2-yl)methanol], under setting [1], the IC50 lay in the range of 1000 to 10000 nM. Take `OCc1cc2nccc(-c3cc(Cl)cc(C4CC4)c3OCC3CNC3)c2s1` [Example 23, (7-(2-(Azetidin-3-ylmethoxy)-5-chloro-3-cyclopropylphenyl)thieno[3,2-b]pyridin-2-yl)methanol]: the 50% inhibitory concentration (IC50) under setting [1] was in the range of 1000 to 10000 nM.

For the molecule `Cc1cc(C#N)cc(-c2ncnc3ccsc23)c1OCC1(C)CNC1` [Example 24, 3-Methyl-4-((3-methylazetidin-3-yl)methoxy)-5-(thieno[3,2-d]pyrimidin-4-yl)benzonitrile], under setting [1], the half-inhibitory concentration (IC50) lay within 10000 to 30000 nM. Still for that read-out and setting: in the case of `Cc1cc(Cl)cc(-c2ccnc3cc(CN4C(=O)CN(C)C4=O)sc23)c1OCC1(C)CNC1` [Example 25, 3-((7-(5-Chloro-3-methyl-2-((3-methylazetidin-3-yl)methoxy)phenyl)thieno[3,2-b]pyridin-2-yl)methyl)-1-methylimidazolidine-2,4-dione] it was < 1000 nM; in that of `Cc1cc(Cl)cc(-c2ncnc3ccsc23)c1OCC1(C)CNC1` [Example 26, 4-(5-Chloro-3-methyl-2-((3-methylazetidin-3-yl)methoxy)phenyl)thieno[3,2-d]pyrimidine], 10000 to 30000 nM.

In general, IC50 refers to the concentration that inhibits the measured activity by half.
